{"source": "patent US20100226987A1", "about": "“TARGETING CONJUGATES COMPRISING ACTIVE AGENTS ENCAPSULATED IN CYCLODEXTRIN-CONTAINING POLYMERS” (CAPSUTECH LTD., priority 2007, published 2010)", "tested_on": "human nasopharyngeal KB cancer cells, which overexpress the folate receptor (FR)", "assay": "In vitro binding of RhB-encapsulating conjugates to KB cells (fluorescence counting and fluorescence microscopy)", "assay_type": "cell-based", "settings": "control = mixture of non-encapsulated RhB, free CD derivative, PEG and FA, FIGS. 1A-1B", "experimental": "Cell culture. KB cells (ATCC CCL-17) were obtained from ATCC and grown on Minimum essential medium (Eagle) with 2 mM L-glutamine; 0.1 mM non-essential amino acids; 0.2 Earle's BSS adjusted to contain 1.5 g/l sodium bicarbonate; and 1.0 mM sodium pyruvate, 90%; heat inactivated fetal bovine serum, 10%. Cells were subcultured according to the ATCC recommended protocol. After 3 cycles of splitting at 85% confluence, 2,000 to 50,000 cells were seeded on transparent 96 well plate. Following 24 hours it was decided that optimal conditions would be seeding 35,000 cells per well for assay to be carried out in the following day. […]\nKB cancer cells were cultured as described in Materials and Methods, and seeded on both Black and transparent 96 well plates for fluorescence counting and fluorescent microscopy. […] The medium was then washed 3 times with PBS 1 X, and fluorescence associated with the cells in both plates was counted using Analyst HT (Ex 525 nm, Dc 560 nm, Em 595 nm). The net fluorescence was calculated by subtracting the averaged background fluorescence form the fluorescence of the conjugate-treated cells. The transparent plate was further analyzed by fluorescence microscopy.", "data": [{"substance": "Di-CD-Glu-PEG3350-FA-RhB [Conjugate 55]", "values": [{"measurement": "fluorescence of treated cells higher relative to control", "value": 780, "unit": "%"}]}]}
